Where a SMILES comes first, the peptide text is derived from it. Bridges are numbered along the chain shown (N, C = ends).

By fraction unbound is commonly meant the share of the substance not bound to proteins or other matrix. Read a high fraction unbound as much free substance.

A short description of this data set: Determination of the protein binding (90% serum, 30 kDa filter, HPLC). The format is in vitro ADME. The note with it: serum. As to the method:
Protein binding assays were performed as follows. The purified peptides were mixed with 90% serum and centrifuged through a 30 kDa filter. The ultra-filtrate and the non filtrated serum samples were quantified by HPLC measurements and the protein binding was subsequently calculated.
The compound `CC(C)[C@@H]1NC(=O)CNC(=O)[C@H](CC(N)=O)NC(=O)[C@H](CCCNC(=N)N)NC(=O)[C@H](CCCCN)NC(=O)[C@H](C(C)C)NC(=O)[C@@H]2CSSC[C@H](NC(=O)[C@H](CO)NC(=O)[C@H](CCCNC(=N)N)NC1=O)C(=O)N[C@@H](Cc1ccc(O)cc1)C(=O)N[C@@H](CCCNC(=N)N)C(=O)N[C@@H](CCCNC(=N)N)C(=O)N[C@H](C(=O)N[C@@H](CC(N)=O)C(=O)O)CSSC[C@H](NC(=O)[C@H](Cc1ccccc1)NC(=O)CN)C(=O)N[C@@H](Cc1c[nH]c3ccccc13)C(=O)N[C@@H](Cc1ccc(O)cc1)C(=O)N[C@@H](C(C)C)C(=O)N2` [compound 87] (H-GFCWYVCVKRNGVRSCYRRCN-OH; disulfide 3-20, 7-16 (inferred); N-terminus and C-terminus assumed) showed a free fraction (fraction unbound) of 0.07.

Regarding `CC(C)[C@@H]1NC(=O)CNC(=O)[C@H](CC(N)=O)NC(=O)[C@H](CCCNC(=N)N)NC(=O)[C@H](Cc2ccc(O)cc2)NC(=O)[C@H](C(C)C)NC(=O)[C@@H]2CSSC[C@H](NC(=O)[C@H](C(C)C)NC(=O)[C@H](CCCNC(=N)N)NC1=O)C(=O)N[C@@H](Cc1c[nH]cn1)C(=O)N[C@@H](CCCNC(=N)N)C(=O)N[C@@H](Cc1c[nH]cn1)C(=O)N[C@H](C(=O)N[C@@H](CC(N)=O)C(=O)O)CSSC[C@H](NC(=O)[C@H](Cc1ccccc1)NC(=O)[C@@H](N)CCCNC(=N)N)C(=O)N[C@@H](Cc1c[nH]c3ccccc13)C(=O)N[C@@H](CC(N)=O)C(=O)N[C@@H](C(C)C)C(=O)N2` [compound 359] (H-RFCWNVCVYRNGVRVCHRHCN-OH; disulfide 3-20, 7-16 (inferred); N-terminus and C-terminus assumed), the fraction unbound is 0.2.

Consider `CC(C)[C@@H]1NC(=O)CNC(=O)[C@H](Cc2c[nH]cn2)NC(=O)[C@H](CCCNC(=N)N)NC(=O)[C@H](Cc2ccc(O)cc2)NC(=O)[C@H](C(C)C)NC(=O)[C@@H]2CSSC[C@H](NC(=O)[C@H](C(C)C)NC(=O)[C@H](CCCNC(=N)N)NC1=O)C(=O)N[C@@H](Cc1c[nH]cn1)C(=O)N[C@@H](CCCNC(=N)N)C(=O)N[C@@H](CCCNC(=N)N)C(=O)N[C@H](C(=O)N[C@@H](CC(N)=O)C(=O)O)CSSC[C@H](NC(=O)[C@H](Cc1ccccc1)NC(=O)CN)C(=O)N[C@@H](Cc1c[nH]c3ccccc13)C(=O)N[C@@H](CC(N)=O)C(=O)N[C@@H](C(C)C)C(=O)N2` [compound 232] (H-GFCWNVCVYRHGVRVCHRRCN-OH; disulfide 3-20, 7-16 (inferred); N-terminus and C-terminus assumed), for which the unbound share (fraction unbound) is 0.15.

`CC(C)[C@@H]1NC(=O)CNC(=O)[C@H](CC(N)=O)NC(=O)[C@H](CCCNC(=N)N)NC(=O)[C@H](Cc2ccc(O)cc2)NC(=O)[C@H](C(C)C)NC(=O)[C@@H]2CSSC[C@H](NC(=O)CNC(=O)[C@H](CCCNC(=N)N)NC1=O)C(=O)N[C@@H](Cc1ccc(O)cc1)C(=O)N[C@@H](CCCNC(=N)N)C(=O)N[C@@H](CCCNC(=N)N)C(=O)N[C@H](C(=O)N[C@@H](CC(N)=O)C(=O)O)CSSC[C@H](NC(=O)[C@H](Cc1ccccc1)NC(=O)CN)C(=O)N[C@@H](Cc1c[nH]c3ccccc13)C(=O)N[C@@H](Cc1ccc(O)cc1)C(=O)N[C@@H](C(C)C)C(=O)N2` [compound 38] (H-GFCWYVCVYRNGVRGCYRRCN-OH; disulfide 3-20, 7-16 (inferred); N-terminus and C-terminus assumed) showed a fraction unbound of 0.07.

`CC(C)[C@@H]1NC(=O)CNC(=O)[C@H](CC(N)=O)NC(=O)[C@H](CCCNC(=N)N)NC(=O)[C@H](Cc2ccc(O)cc2)NC(=O)[C@H](C(C)C)NC(=O)[C@@H]2CSSC[C@H](NC(=O)[C@H](CO)NC(=O)[C@H](CCCNC(=N)N)NC1=O)C(=O)N[C@@H](Cc1ccc(O)cc1)C(=O)N[C@@H](CCCNC(=N)N)C(=O)N[C@@H](CCCNC(=N)N)C(=O)N[C@H](C(=O)N[C@@H](CC(N)=O)C(=O)O)CSSC[C@H](NC(=O)[C@H](Cc1ccccc1)NC(=O)CN)C(=O)N[C@@H](C)C(=O)N[C@@H](CCCNC(=N)N)C(=O)N[C@@H](C(C)C)C(=O)N2` [compound 122] (H-GFCARVCVYRNGVRSCYRRCN-OH; disulfide 3-20, 7-16): the fraction unbound was 0.19.

Regarding `CC(C)[C@@H]1NC(=O)CNC(=O)[C@H](CC(N)=O)NC(=O)[C@H](CCCNC(=N)N)NC(=O)[C@H](Cc2ccc(O)cc2)NC(=O)[C@H](C(C)C)NC(=O)[C@@H]2CSSC[C@H](NC(=O)[C@H](CO)NC(=O)[C@H](CCCNC(=N)N)NC1=O)C(=O)N[C@@H](Cc1ccc(O)cc1)C(=O)N[C@@H](CCCNC(=N)N)C(=O)N[C@@H](CCCNC(=N)N)C(=O)N[C@H](C(=O)N[C@@H](CC(N)=O)C(=O)O)CSSC[C@H](NC(=O)[C@H](Cc1ccccc1)NC(=O)CN)C(=O)N[C@@H](Cc1ccc(O)cc1)C(=O)N[C@@H](CCCCN)C(=O)N[C@@H](C(C)C)C(=O)N2` [compound 206] (H-GFCYKVCVYRNGVRSCYRRCN-OH; disulfide 3-20, 7-16 (inferred); N-terminus and C-terminus assumed), the fraction unbound is 0.14.

For the compound `CC(C)[C@@H]1NC(=O)[C@@H]2CSSC[C@H](NC(=O)[C@H](C(C)C)NC(=O)[C@H](CCCNC(=N)N)NC(=O)[C@@H]3CCCN3C(=O)CNC(=O)[C@H](CC(N)=O)NC(=O)[C@H](CCCNC(=N)N)NC(=O)[C@H](Cc3ccc(O)cc3)NC1=O)C(=O)N[C@@H](Cc1ccc(O)cc1)C(=O)N[C@@H](CCCNC(=N)N)C(=O)N[C@@H](CCCNC(=N)N)C(=O)N[C@H](C(=O)N[C@@H](CC(N)=O)C(=O)O)CSSC[C@H](NC(=O)[C@H](Cc1ccccc1)NC(=O)CN)C(=O)N[C@@H](Cc1c[nH]c3ccccc13)C(=O)N[C@@H](Cc1ccc(O)cc1)C(=O)N[C@@H](C(C)C)C(=O)N2` [compound 33] (H-GFCWYVCVYRNGPRVCYRRCN-OH; disulfide 3-20, 7-16 (inferred); N-terminus and C-terminus assumed), the fraction unbound came to 0.01.

`CC(C)[C@@H]1NC(=O)[C@H](CCCNC(=N)N)NC(=O)[C@H](CO)NC(=O)CNC(=O)[C@H](CC(N)=O)NC(=O)[C@H](CCCNC(=N)N)NC(=O)[C@H](Cc2ccc(O)cc2)NC(=O)[C@H](C(C)C)NC(=O)[C@@H]2CSSC[C@H](NC1=O)C(=O)N[C@@H](Cc1ccc(O)cc1)C(=O)N[C@@H](CCCNC(=N)N)C(=O)N[C@@H](CCCNC(=N)N)C(=O)N[C@H](C(=O)N[C@@H](CC(N)=O)C(=O)O)CSSC[C@H](NC(=O)[C@H](Cc1ccccc1)NC(=O)CN)C(=O)N[C@@H](Cc1c[nH]c3ccccc13)C(=O)N[C@@H](Cc1ccc(O)cc1)C(=O)N[C@@H](C(C)C)C(=O)N2` [compound 36] (H-GFCWYVCVYRNGSRVCYRRCN-OH; disulfide 3-20, 7-16 (inferred); N-terminus and C-terminus assumed) showed a fraction unbound of 0.4.

Compound `CC(C)[C@@H]1NC(=O)CNC(=O)[C@H](CC(N)=O)NC(=O)[C@H](CCCNC(=N)N)NC(=O)[C@H](Cc2ccc(O)cc2)NC(=O)[C@H](C(C)C)NC(=O)[C@@H]2CSSC[C@H](NC(=O)[C@H](CC(N)=O)NC(=O)[C@H](CCCNC(=N)N)NC1=O)C(=O)N[C@@H](Cc1c[nH]cn1)C(=O)N[C@@H](CCCNC(=N)N)C(=O)N[C@@H](CCCNC(=N)N)C(=O)N[C@H](C(=O)N[C@@H](CC(N)=O)C(=O)O)CSSC[C@H](NC(=O)[C@H](Cc1ccccc1)NC(=O)CN)C(=O)N[C@@H](Cc1c[nH]c3ccccc13)C(=O)N[C@@H](CC(N)=O)C(=O)N[C@@H](C(C)C)C(=O)N2` [compound 251] (H-GFCWNVCVYRNGVRNCHRRCN-OH; disulfide 3-20, 7-16 (inferred); N-terminus and C-terminus assumed) had a fraction unbound of 0.29.

Compound `CC[C@H](C)[C@@H]1NC(=O)[C@H](CCCNC(=N)N)NC(=O)[C@H](C(C)C)NC(=O)CNC(=O)[C@H](CC(N)=O)NC(=O)[C@H](CCCNC(=N)N)NC(=O)[C@H](Cc2ccc(O)cc2)NC(=O)[C@H](C(C)C)NC(=O)[C@@H]2CSSC[C@H](NC1=O)C(=O)N[C@@H](Cc1c[nH]cn1)C(=O)N[C@@H](CCCNC(=N)N)C(=O)N[C@@H](CCCNC(=N)N)C(=O)N[C@H](C(=O)N[C@@H](CC(N)=O)C(=O)O)CSSC[C@H](NC(=O)[C@H](Cc1ccccc1)NC(=O)CN)C(=O)N[C@@H](Cc1c[nH]c3ccccc13)C(=O)N[C@@H](CC(N)=O)C(=O)N[C@@H](C(C)C)C(=O)N2` [compound 248] (H-GFCWNVCVYRNGVRICHRRCN-OH; disulfide 3-20, 7-16 (inferred); N-terminus and C-terminus assumed) gave a fraction unbound of 0.42.

On to `CC(C)[C@@H]1NC(=O)[C@H](Cc2c[nH]cn2)NC(=O)[C@H](Cc2c[nH]c3ccccc23)NC(=O)[C@@H](NC(=O)[C@H](Cc2ccccc2)NC(=O)CN)CSSC[C@@H](C(=O)N[C@@H](CC(N)=O)C(=O)O)NC(=O)[C@H](CCCNC(=N)N)NC(=O)[C@H](CCCNC(=N)N)NC(=O)[C@H](Cc2ccc(O)cc2)NC(=O)[C@@H]2CSSC[C@H](NC1=O)C(=O)N[C@@H](C)C(=O)N[C@@H](CCCNC(=N)N)C(=O)N[C@@H](CCCNC(=N)N)C(=O)N[C@@H](CC(N)=O)C(=O)NCC(=O)N[C@@H](C)C(=O)N[C@@H](CCCNC(=N)N)C(=O)N[C@@H](C(C)C)C(=O)N2` [compound 394] (H-GFCWHVCARRNGARVCYRRCN-OH; disulfide 3-20, 7-16 (inferred); N-terminus and C-terminus assumed), for which the fraction unbound is 0.2.

`CC(C)[C@@H]1NC(=O)[C@H](CCCNC(=N)N)NC(=O)[C@H](C)NC(=O)CNC(=O)[C@H](CC(N)=O)NC(=O)[C@H](CCCNC(=N)N)NC(=O)[C@H](Cc2ccc(O)cc2)NC(=O)[C@H](C(C)C)NC(=O)[C@@H]2CSSC[C@H](NC1=O)C(=O)N[C@@H](Cc1ccc(O)cc1)C(=O)N[C@@H](CCCNC(=N)N)C(=O)N[C@@H](CCCNC(=N)N)C(=O)N[C@H](C(=O)N[C@@H](CC(N)=O)C(=O)O)CSSC[C@H](NC(=O)[C@H](Cc1ccccc1)NC(=O)CN)C(=O)N[C@@H](Cc1c[nH]c3ccccc13)C(=O)N[C@@H](Cc1ccc(O)cc1)C(=O)N[C@@H](C(C)C)C(=O)N2` [compound 29] (H-GFCWYVCVYRNGARVCYRRCN-OH; disulfide 3-20, 7-16 (inferred); N-terminus and C-terminus assumed): the fraction unbound was found to be 0.01.
